Measured values: paper PMC8078777 (PLoS Pathogens, 2021)
Where “and” joins values, the source holds several entries; their conditions need not be identical. Equal values may be shown once.

Tests used:
BcNEP1 = tested on: BcNEP1; design: method as in doi:10.1016/j.pmpp.2010.06.003; conditions: cited from earlier work
NLPPp [1] = target: T1, NLPPp (Phytophthora nicotianae, UniProt Q9AT28); design: method as in doi:10.1016/j.pmpp.2010.06.003; conditions: cited from earlier work
T1 construct: made in house; host or cells: Pichia pastoris
T1 sequence (Q9AT28 20-237): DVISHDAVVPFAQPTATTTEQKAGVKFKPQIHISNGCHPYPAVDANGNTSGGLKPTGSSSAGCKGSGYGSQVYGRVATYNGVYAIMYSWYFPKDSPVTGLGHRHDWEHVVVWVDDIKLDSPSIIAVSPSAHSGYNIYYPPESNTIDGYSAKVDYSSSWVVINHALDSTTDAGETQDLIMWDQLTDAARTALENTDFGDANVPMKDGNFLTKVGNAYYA

NLPPp [2] = target: T1, NLPPp; experiment: Surface plasmon resonance binding to immobilized NLPPp; design: species or system Phytophthora parasitica; conditions: for Kd: SPR, steady-state affinity model, 50 mM MES, 150 mM NaCl, 5% DMSO, pH 5.8
NLPPp [3] = target: T1, NLPPp; experiment: Tobacco leaf infiltration assay, NLPPp-induced necrosis; type: in vivo, Phytophthora parasitica; conditions: 400 nM NLPPp with different concentrations of compound, tobacco leaves, 24 h

| SMILES | effect on necrosis-inducing action of BcNEP1 (BcNEP1) | effect against NLPPp (NLPPp [1]) | SPR binding to NLPPp (in words) (NLPPp [2]) | effect on NLPPp-induced necrosis (NLPPp [3]) | Kd (NLPPp [2]) |
| --- | --- | --- | --- | --- | --- |
| O=C(N/N=C/c1ccc(O)c(O)c1)c1cc2ccccc2cc1O [dynasore] | reduced | ineffective |  |  |  |
| Cc1ccc2occ(C3N[C@H](C(=O)O)CS3)c(=O)c2c1 (stereo partly drawn) [6C3, (4R)-2-(6-methyl-4-oxo-4H-chromen-3-yl)thiazolidine-4-carboxylic acid] |  |  | nonspecific binding | inhibited |  |
| Cc1oc([C@@H](O)[C@H](O)[C@H](O)CO)cc1C(=O)O [6E11, 2-methyl-5-((1S,2R,3R)-1,2,3,4-tetrahydroxybutyl)furan-3-carboxylic acid, reference compound] |  |  |  | did not affect NLPPp cytotoxicity |  |
| O=C(Cc1c[nH]c2ccccc12)Nc1ccccc1CCOC(=O)Cc1c[nH]c2ccccc12 [7C8, 2-(2-(1H-indol-3-yl)acetamido)phenethyl 2-(1H-indol-3-yl)acetate] |  |  |  | inhibited | 40.5 µM and ~50 µM |
| COc1ccc(Nc2ccccc2C(=O)O)cc1 [6G7, 2-((4-methoxyphenyl)amino)benzoic acid] |  |  |  | inhibited | 71.9 ± 19.1 µM |
